According to patent US10344330B2, “Glatiramer acetate response biomarker mRNA potency assay” (Mylan Inc., priority 2013, dated 2019):

Columns and labels:
[1] = tested on: mouse IL-4 mRNA in primary LN cells; test: Validation: mouse IL-4 mRNA by real-time PCR in LN cells of GA-immunized SJL/J mice (Example IV); assay type: cell-based; conditions: for IL-4 mRNA Fold Change: normalized to GAPDH; for induction of IL-4 mRNA: 20 μg/mL GA, 6 hours
Protocol: Three experiments were conducted using one batch of GA (Mylan GMA). The primary LN cells were stimulated by incubation with 6 concentrations (0.3 to 20 μg/mL) of the GA for 6 hours at 37° C. Total RNA was isolated from LN cells stimulated with GA or controls. cDNA was synthesized from the RNA and the mRNA levels of seven mouse cytokines, IL-2, IL-4, IL-5, IL-10, IL-13, interferon (IFN)-γ and tumor necrosis factor (TNF)-α, were quantitatively measured by a real-time PCR method.
Female SJL/J mice at 8-9 weeks of age were immunized by injection into four footpads using a 1 mL syringe with a 27-G, ½-inch needle. Each mouse received a total injection volume of 0.1 mL of GMA emulsified in CFA (about 10 μL into each of the front footpads and 40 μL into each of the hind footpads). Animals were immunized on Day 0. After injection, animals were placed back in their cages and housed ≤6 animals per cage.
Immunized animals were sacrificed by cervical dislocation on Day 10 following immunization. […] After centrifugation at about 200×g for 10 minutes at 4° C., the cell pellet was re-suspended in 40 mL of DCCM-1 medium for cell counting. A Trypan blue exclusion method was used to determine the cell density of viable cells in the suspension. After cell counting, the LN cells were suspended in enriched DCCM-1 medium at density of 7.5×10^6 cells/mL. LN cells (0.12 mL) were plated into each well of 96-well tissue culture plates.
Dilutions of GA (Mylan GMA) were prepared using enriched DCCM-1 medium as the diluent. GA dilutions (0.12 mL) were added in the assigned wells of 96-well tissue culture plates. The same volume of LN cells (0.12 mL) isolated from immunized animals was added to the assigned wells. A positive control and a negative control were always performed in the same assay by treating LN cells with 2.5 μg/mL ConA and 10 μg/mL MBP, respectively. The LN cells with mock stimulation protocols (enriched DCCM-1 medium) were used to monitor the background mRNA level of a cytokine. The plates were incubated at 37° C. in a humidified 5% CO2 incubator for 6 hr.
At the end of incubation time, culture medium from stimulated cells was removed by aspiration and the cells were lysed using Qiagen or Promega lysis buffer. The lysate was transferred to an RNeasy Mini column (Qiagen) or wells of the SV 96 Binding Plate (Promega) for RNA isolation and cDNA synthesis. All tested samples were run in triplicate.
The SV 96 Total RNA Isolation System (Promega; Cat. No. Z3505) was used for total RNA isolation. Assay procedures were carried out according to each manufacturer's protocol. RNA samples were stored at −70° C. until use. […] The assay procedure was carried out according to the manufacturer's protocol.
The plate was centrifuged at 2000 rpm for 2 minutes at 4° C. to spin down the contents and eliminate air bubbles. Samples were prepared and run in a 96-well plate using a Life Technologies Real-Time PCR system (previously Applied Biosystems; Model No. 7500) according to the manufacturer's recommendation. The mix for the reference gene was prepared in the same way using the reference gene primer.
A relative quantitation method was used to analyze changes in mIL-2, mIL-4, mIL-5, mIL-10, mIL-13, mIFN-γ and TNF-α expression in GA treated samples relative to the untreated control (Enriched DCCM-1 treated) samples using the following program:
Levels of mouse cytokine amplicons were normalized to an internal probe level (GAPDH) from the same samples. The following equations were used to calculate the relative increase in response to GA stimulation compared to the control sample (Enriched DCCM1 sample): […]

[2] = tested on: KC (CXCL1) secreted by LN cells; test: KC (CXCL1) secretion by GA-stimulated LN cells, MSD 9-plex ELISA (Example II); assay type: cell-based, mouse; conditions: for KC secretion response ratio (treated cell medium to control DCCM1 medium): 21 hr
[3] = BALB/cByJ, immunized GA Lower Limb
[4] = C57BL10J, immunized GA Intraplantar
[5] = C57BL10J, immunized GA Lower Limb

Molecule: Concanavalin A [ConA, reference compound]
- IL-4 mRNA Fold Change ([1]; Experiment 1, 2.5 μg/mL): 148.6 fold
- IL-4 mRNA Fold Change ([1]; Experiment 2, 2.5 μg/mL): 21.0 fold
- IL-4 mRNA Fold Change ([1]; Experiment 3, 2.5 μg/mL): 53.8 fold
- KC secretion response ratio (treated cell medium to control DCCM1 medium) [2, 3]: 0.90
- KC secretion response ratio (treated cell medium to control DCCM1 medium) [2, 4]: 1.55
- KC secretion response ratio (treated cell medium to control DCCM1 medium) [2, 5]: 1.28
- KC secretion response ratio (treated cell medium to control DCCM1 medium) ([2]; CD-1, immunized GA Lower Limb): 1.65

Molecule: L-glutamic acid polymer with L-alanine, L-lysine and L-tyrosine, acetate (salt) [GA]
- induction of IL-4 mRNA ([1]; SJL/J, Exp 1): 41.3 fold
- induction of IL-4 mRNA ([1]; SJL/J, Exp 2): 11.8 fold
- induction of IL-4 mRNA ([1]; SJL/J, Exp 3): 27.6 fold
- induction of IL-4 mRNA (in words) ([1]; SJL/J, different concentrations of GA vs unstimulated LN cells): robust induction
- KC secretion, dose response to GA (in words) ([2]; cells from any of the three mouse strains): No dose response

B1: MBP: myelin basic protein, a negative control (protein, UniProt P02686 1-304, looked up)
Myelin basic protein: MGNHAGKRELNAEKASTNSETNRGESEKKRNLGELSRTTSEDNEVFGEADANQNNGTSSQDTAVTDSKRTADPKNAWQDAHPADPGSRPHLIRLFSRDAPGREDNTFKDRPSESDELQTIQEDSAATSESLDVMASQKRPSQRHGSKYLATASTMDHARHGFLPRHRDTGILDSIGRFFGGDRGAPKRGSGKDSHHPARTAHYGSLPQKSHGRTQDENPVVHFFKNIVTPRTPPPSQGKGRGLSLSRFSWGAEGQRPGFGYGGRASDYKSAHKGFKGVDAQGTLSKIFKLGGRDSRSGSPMARR
- IL-4 mRNA Fold Change ([1]; Experiment 1, 10 μg/mL): 2.7 fold
- IL-4 mRNA Fold Change ([1]; Experiment 2, 10 μg/mL): 0.8 fold
- IL-4 mRNA Fold Change ([1]; Experiment 3, 10 μg/mL): 1.1 fold
- KC secretion response ratio (treated cell medium to control DCCM1 medium) [2, 3]: 1.02
- KC secretion response ratio (treated cell medium to control DCCM1 medium) [2, 4]: 1.00
- KC secretion response ratio (treated cell medium to control DCCM1 medium) [2, 5]: 1.04
- KC secretion response ratio (treated cell medium to control DCCM1 medium) ([2]; CD-1, immunized GA Lower Limb): 1.08
